Where two headings read alike, the source gives them in different places.
Columns and labels:
[1] = test system: unfractionated heparin (UFH); assay: aPTT clotting assay, UFH 0.2 U/mL in plasma (Example 7); format: biochemical
Method: aPTT clotting Assay. Unfractionated heparin was mixed with plasma at a final concentration of 0.2 U/mL. […] The ACL Elite Hemostasis analyzer (Beckman Coulter™) was used to add aPTT reagent (HemosIL SynthASil) to supplemented plasma. Clotting was initiated by addition of CaCl2 and time to clot was recorded.

enoxaparin (ENOX) = assay: FXa chromogenic assay (absence of plasma), enoxaparin
Method: (§1) Human antithrombin was mixed with an anticoagulant agent (a LMWH or fondaparinux); final concentrations were 0.22 μg/mL for the LMWHs and 0.07 μg/mL for fondaparinux. […] Absorbance was read every 30 seconds over a 4 minute period in a SpectraMax 250 instrument (Molecular Devices, Inc.). EC50 values are determined by a curve-fit program (SoftMax Pro) using the following formula:
(§2) FXa Chromogenic Assay (absence of plasma). Human antithrombin was mixed with an anticoagulant (a LMWH or fondaparinux); final concentrations were 0.1 μg/mL for the LMWHs and 0.02 μg/mL for fondaparinux. […] Absorbance was read every 30 seconds over a 4 minute period in a SpectraMax 250 instrument (Molecular Devices Inc.™) The slope of absorbance vs time was calculated for each compound concentration. EC50 values were determined using a curve fit program (GraphPad Prism 5).

fondaparinux (FONDAPX) = assay: FXa chromogenic assay (absence of plasma), fondaparinux
Method: as §1, §2

[2] = enoxaparin 0.1 μg/mL, absence of plasma
[3] = fondaparinux 0.02 μg/mL, absence of plasma

| SMILES | UFH (aPTT) EC50 ([1]; UFH 0.2 U/mL in plasma) [µg/mL] | ENOX (FXa) EC50 (enoxaparin (ENOX); [2]) [µg/mL] | FONDAPX (FXa) EC50 (fondaparinux (FONDAPX); [3]) [µg/mL] | UFH (aPTT) EC50 [1] [µg/mL] | ENOX (FXa) EC50 (enoxaparin (ENOX)) [µg/mL] | FONDAPX (FXa) EC50 (fondaparinux (FONDAPX)) [µg/mL] |
| --- | --- | --- | --- | --- | --- | --- |
| COc1ccc(NC(=O)[C@@H](CCCNC(=N)N)NC(=O)CCCCNC(=N)N)cc1C(=O)N[C@H](CCCNC(=N)N)C(=O)Nc1ccc(OC)c(C(=O)N[C@H](CCCNC(=N)N)C(=O)Nc2ccc(OC)c(C(=O)N[C@H](CCCNC(=N)N)C(=O)Nc3ccc(OCCNC(=N)N)c(C(N)=O)c3)c2)c1 [Compound 27] | 2.19 | 0.10 | 2.51 |  |  |  |
| COc1ccc(NC(=O)[C@H](CCCCN)NC(=O)c2cc(NC(=O)[C@H](CCCCN)NC(=O)c3cc(NC(=O)[C@H](CCCCN)NC(=O)c4cc(NC(=O)[C@@H](N)CCCNC(=N)N)ccc4OC)ccc3OC)ccc2OC)cc1C(N)=O [Compound 81] | 1.97 | 0.26 | 3.23 |  |  |  |
| CSc1ccc(NC(=O)[C@H](CCCNC(=N)N)NC(=O)c2cc(NC(=O)[C@H](CCCNC(=N)N)NC(=O)c3cc(NC(=O)[C@H](CCCNC(=N)N)NC(=O)c4cc(NC(=O)[C@@H](N)CCCNC(=N)N)ccc4SC)ccc3SC)ccc2SC)cc1C(N)=O [Compound 97] | >10 | 0.9842 | >20 |  |  |  |
| COc1ccc(NC(=O)[C@@H](CCCCN)NC(=O)c2cc(NC(=O)[C@@H](CCCNC(=N)N)NC(=O)c3cc(NC(=O)[C@@H](CCCCN)NC(=O)c4cc(NC(=O)[C@H](N)CCCNC(=N)N)ccc4OC)ccc3OC)ccc2OC)cc1C(N)=O [Compound 43] | 2.33 | 0.36 | 4.44 |  |  |  |
| COc1ccc(NC(=O)[C@H](CCCCN)NC(=O)c2cc(NC(=O)[C@H](CCCCN)NC(=O)c3cc(NC(=O)[C@H](CCCCN)NC(=O)c4cc(NC(=O)[C@@H](N)CCCCN)ccc4SC)ccc3OC)ccc2OC)cc1C(N)=O [Compound 130] | 2.50 | 0.3835 | 5.47 |  |  |  |
| COc1ccc(NC(=O)[C@H](CCCCN)NC(=O)c2cc(NC(=O)[C@H](CCCCN)NC(=O)c3cc(NC(=O)[C@H](CCCCN)NC(=O)c4cnc(N)s4)ccc3OC)ccc2OC)cc1C(N)=O [Compound 131] | 3.68 | 4.499 | >20 |  |  |  |
| COc1ccc(NC(=O)[C@H](CCCNC(=N)N)NC(=O)c2cc(NC(=O)[C@H](CCCNC(=N)N)NC(=O)c3cc(NC(=O)[C@H](CCCNC(=N)N)NC(=O)c4cc(NC(=O)[C@@H](N)CCCNC(=N)N)ccc4OC)ccc3OC)ccc2OC)cc1C(N)=O [Compound 7] | 1.84 | 0.21 | 1.49 |  |  |  |
| COc1ccc(NC(=O)[C@@H](CCCNC(=N)N)NC(=O)c2cc(NC(=O)[C@@H](CCCNC(=N)N)NC(=O)c3cc(NC(=O)[C@@H](CCCNC(=N)N)NC(=O)c4cc(NC(=O)[C@H](N)CCCNC(=N)N)ccc4OCCNC(=N)N)ccc3OC)ccc2OC)cc1C(N)=O [Compound 19] | 2.11 | 0.27 | 3.35 |  |  |  |
| COc1ccc(NC(=O)[C@H](CCCCN)NC(=O)c2cc(NC(=O)[C@H](CCCCN)NC(=O)c3cc(NC(=O)[C@H](CCCCN)NC(=O)c4cc(NC(=O)[C@@H](N)CCCCN)ccc4OC)ccc3OC)ccc2OC)cc1C(=O)NCC(=O)O [Compound 107] | 1.34 | 0.498 | 6.961 |  |  |  |
| COc1ccc(NC(=O)[C@@H](CCCNC(N)=O)NC(=O)c2cc(NC(=O)[C@@H](CCCNC(=N)N)NC(=O)c3cc(NC(=O)[C@@H](CCCNC(N)=O)NC(=O)c4cc(NC(=O)[C@H](N)CCCNC(=N)N)ccc4OC)ccc3OC)ccc2OC)cc1C(N)=O [Compound 47] |  |  |  | 3.23 | 0.36 | 6.52 |
